Data as given in ChEMBL document CHEMBL4371076 (J Med Chem, 2019).
Active and inactive are the calls of the source. The calls are words filed in the database; no cut-off is given here.

Experiments:
[1] = Permeability of the compound at pH 5.5 by PAMPA; assay type: ADME; conditions: read-out: permeability
Cytochrome P450 2C19 [2] = biological target: T1, Cytochrome P450 2C19 (Homo sapiens, UniProt P33261); assay: Inhibition of CYP2C19 in human liver microsomes; assay type: ADME; conditions: human, microsomes
T1 sequence (P33261 whole entry): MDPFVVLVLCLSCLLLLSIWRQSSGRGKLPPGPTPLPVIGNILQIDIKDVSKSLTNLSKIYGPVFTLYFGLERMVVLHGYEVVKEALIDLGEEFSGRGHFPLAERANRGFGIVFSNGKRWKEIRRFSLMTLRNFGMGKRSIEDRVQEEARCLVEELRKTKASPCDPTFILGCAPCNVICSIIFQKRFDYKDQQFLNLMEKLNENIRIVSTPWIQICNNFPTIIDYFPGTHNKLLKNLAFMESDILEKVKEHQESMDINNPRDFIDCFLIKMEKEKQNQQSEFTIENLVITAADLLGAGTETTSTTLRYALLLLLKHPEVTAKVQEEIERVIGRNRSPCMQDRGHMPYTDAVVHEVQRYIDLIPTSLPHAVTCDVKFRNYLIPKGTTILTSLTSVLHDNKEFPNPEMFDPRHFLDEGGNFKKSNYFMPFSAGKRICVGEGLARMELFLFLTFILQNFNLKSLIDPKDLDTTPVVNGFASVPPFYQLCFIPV

[3] = biological target: Sodium channel protein type 9 subunit alpha (Homo sapiens, UniProt Q15858); assay: Inhibition of recombinant human Nav1.7 expressed in HEK293 cells at -70 mV holding potential by patch clamp electrophysiology method; assay type: cell-based
Sequence of Sodium channel protein type 9 subunit alpha (Homo sapiens, UniProt Q15858) (Q15858 whole entry): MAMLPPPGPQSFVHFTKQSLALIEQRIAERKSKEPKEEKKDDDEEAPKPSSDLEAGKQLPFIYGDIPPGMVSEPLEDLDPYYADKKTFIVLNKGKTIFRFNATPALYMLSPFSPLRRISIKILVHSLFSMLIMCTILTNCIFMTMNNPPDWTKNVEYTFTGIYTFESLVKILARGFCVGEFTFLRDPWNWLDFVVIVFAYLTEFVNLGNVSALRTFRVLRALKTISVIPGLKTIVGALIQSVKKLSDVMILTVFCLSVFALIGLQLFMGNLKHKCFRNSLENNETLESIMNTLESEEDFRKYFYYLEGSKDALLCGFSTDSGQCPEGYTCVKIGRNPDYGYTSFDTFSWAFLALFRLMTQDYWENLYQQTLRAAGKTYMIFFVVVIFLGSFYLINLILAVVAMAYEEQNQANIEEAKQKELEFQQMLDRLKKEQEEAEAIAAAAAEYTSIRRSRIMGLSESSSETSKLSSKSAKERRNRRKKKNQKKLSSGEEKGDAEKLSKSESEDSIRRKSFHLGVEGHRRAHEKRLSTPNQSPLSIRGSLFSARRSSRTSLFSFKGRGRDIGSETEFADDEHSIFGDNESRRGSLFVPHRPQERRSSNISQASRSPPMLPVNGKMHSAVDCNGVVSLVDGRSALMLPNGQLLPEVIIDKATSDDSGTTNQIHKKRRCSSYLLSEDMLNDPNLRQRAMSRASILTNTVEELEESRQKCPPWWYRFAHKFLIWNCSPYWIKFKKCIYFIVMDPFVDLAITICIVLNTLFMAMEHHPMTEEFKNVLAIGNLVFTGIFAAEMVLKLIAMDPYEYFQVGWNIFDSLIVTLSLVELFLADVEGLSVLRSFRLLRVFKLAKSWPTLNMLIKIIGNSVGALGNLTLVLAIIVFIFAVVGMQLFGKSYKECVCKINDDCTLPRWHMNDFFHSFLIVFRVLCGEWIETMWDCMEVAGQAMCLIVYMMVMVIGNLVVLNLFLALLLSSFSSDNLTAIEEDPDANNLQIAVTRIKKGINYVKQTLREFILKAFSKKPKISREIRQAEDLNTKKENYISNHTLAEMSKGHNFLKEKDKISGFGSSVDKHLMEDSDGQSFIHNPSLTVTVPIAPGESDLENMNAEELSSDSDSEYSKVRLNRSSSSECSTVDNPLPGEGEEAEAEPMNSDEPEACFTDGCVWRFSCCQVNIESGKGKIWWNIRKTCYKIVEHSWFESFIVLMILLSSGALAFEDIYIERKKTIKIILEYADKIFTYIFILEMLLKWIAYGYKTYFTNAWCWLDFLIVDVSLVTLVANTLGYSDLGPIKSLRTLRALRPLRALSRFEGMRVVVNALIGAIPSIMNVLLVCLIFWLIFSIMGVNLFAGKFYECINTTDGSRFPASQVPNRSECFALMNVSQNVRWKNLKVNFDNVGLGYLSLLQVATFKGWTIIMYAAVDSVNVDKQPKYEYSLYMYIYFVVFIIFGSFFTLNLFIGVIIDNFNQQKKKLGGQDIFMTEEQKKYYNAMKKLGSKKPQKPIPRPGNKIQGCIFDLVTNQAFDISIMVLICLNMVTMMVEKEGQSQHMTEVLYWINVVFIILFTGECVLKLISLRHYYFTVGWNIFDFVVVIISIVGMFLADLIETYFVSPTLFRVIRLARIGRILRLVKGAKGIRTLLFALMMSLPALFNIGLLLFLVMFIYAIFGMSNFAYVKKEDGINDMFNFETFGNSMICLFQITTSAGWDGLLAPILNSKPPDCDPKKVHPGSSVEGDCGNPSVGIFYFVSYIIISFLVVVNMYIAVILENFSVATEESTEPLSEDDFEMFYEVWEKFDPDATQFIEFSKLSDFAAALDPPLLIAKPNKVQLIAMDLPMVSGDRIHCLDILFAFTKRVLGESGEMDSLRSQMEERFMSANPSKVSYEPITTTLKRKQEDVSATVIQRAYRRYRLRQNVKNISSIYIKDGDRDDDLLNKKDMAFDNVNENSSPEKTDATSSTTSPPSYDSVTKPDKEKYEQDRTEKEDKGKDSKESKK

[4] = Permeability from basolateral to apical side in human Caco2 cells; assay type: ADME, cell-based; conditions: Caco-2, read-out: permeability
[5] = Fraction unbound in human plasma; assay type: ADME, cell-free
Cytochrome P450 2C8 [6] = biological target: T2, Cytochrome P450 2C8 (Homo sapiens, UniProt P10632); assay: Inhibition of CYP2C8 in human liver microsomes; assay type: ADME; conditions: human, microsomes
T2 sequence (P10632 whole entry): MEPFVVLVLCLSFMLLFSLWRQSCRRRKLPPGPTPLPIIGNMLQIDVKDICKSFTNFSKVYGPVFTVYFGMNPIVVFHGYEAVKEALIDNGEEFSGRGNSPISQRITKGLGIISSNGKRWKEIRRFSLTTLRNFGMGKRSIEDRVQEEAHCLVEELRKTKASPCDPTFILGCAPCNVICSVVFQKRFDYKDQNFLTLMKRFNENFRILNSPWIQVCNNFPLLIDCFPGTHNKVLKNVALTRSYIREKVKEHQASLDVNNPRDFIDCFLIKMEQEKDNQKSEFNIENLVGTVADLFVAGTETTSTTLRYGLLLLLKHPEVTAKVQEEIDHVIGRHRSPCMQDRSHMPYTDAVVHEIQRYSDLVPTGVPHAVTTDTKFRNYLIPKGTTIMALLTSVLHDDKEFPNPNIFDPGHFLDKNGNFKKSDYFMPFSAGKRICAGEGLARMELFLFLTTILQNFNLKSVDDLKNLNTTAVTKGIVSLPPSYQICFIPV

Cytochrome P450 2D6 [7] = biological target: T3, Cytochrome P450 2D6 (Homo sapiens, UniProt P10635); assay: Inhibition of CYP2D6 in human liver microsomes; assay type: ADME; conditions: human, microsomes
T3 sequence (P10635 whole entry): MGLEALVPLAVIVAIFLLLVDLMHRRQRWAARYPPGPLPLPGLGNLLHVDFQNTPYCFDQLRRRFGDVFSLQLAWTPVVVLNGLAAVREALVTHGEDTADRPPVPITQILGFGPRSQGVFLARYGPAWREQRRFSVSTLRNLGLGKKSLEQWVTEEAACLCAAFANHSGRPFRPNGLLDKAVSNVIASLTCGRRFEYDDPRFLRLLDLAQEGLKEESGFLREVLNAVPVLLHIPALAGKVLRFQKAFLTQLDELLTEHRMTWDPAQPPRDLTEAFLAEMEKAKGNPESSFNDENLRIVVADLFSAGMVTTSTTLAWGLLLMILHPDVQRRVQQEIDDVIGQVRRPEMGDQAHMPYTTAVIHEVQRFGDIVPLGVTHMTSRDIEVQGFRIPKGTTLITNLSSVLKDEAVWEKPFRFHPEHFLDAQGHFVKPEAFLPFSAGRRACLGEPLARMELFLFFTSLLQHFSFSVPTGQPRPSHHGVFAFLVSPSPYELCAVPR

Cytochrome P450 2B6 [8] = biological target: T4, Cytochrome P450 2B6 (Homo sapiens, UniProt P20813); assay: Inhibition of CYP2B6 in human liver microsomes; assay type: ADME; conditions: human, microsomes
T4 sequence (P20813 whole entry): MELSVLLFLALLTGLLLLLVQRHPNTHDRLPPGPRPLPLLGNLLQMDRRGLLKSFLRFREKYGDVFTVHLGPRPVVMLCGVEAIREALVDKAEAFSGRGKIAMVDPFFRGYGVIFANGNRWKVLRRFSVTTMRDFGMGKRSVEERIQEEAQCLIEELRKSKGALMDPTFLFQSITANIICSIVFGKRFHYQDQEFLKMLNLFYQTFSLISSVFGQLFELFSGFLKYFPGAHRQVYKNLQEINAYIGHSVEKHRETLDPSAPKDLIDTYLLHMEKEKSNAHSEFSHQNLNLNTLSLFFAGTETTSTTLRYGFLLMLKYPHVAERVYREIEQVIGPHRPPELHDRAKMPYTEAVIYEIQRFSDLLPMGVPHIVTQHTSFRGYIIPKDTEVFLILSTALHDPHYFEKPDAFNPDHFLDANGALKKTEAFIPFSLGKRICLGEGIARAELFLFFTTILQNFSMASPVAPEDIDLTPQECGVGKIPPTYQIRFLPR

[9] = Permeability from apical to basolateral side in human Caco2 cells; assay type: ADME, cell-based; conditions: Caco-2, read-out: permeability
Cytochrome P450 2C9 [10] = biological target: T5, Cytochrome P450 2C9 (Homo sapiens, UniProt P11712); assay: Time-dependant inhibition of CYP2C9 in human liver microsomes; assay type: ADME
T5 sequence (P11712 whole entry): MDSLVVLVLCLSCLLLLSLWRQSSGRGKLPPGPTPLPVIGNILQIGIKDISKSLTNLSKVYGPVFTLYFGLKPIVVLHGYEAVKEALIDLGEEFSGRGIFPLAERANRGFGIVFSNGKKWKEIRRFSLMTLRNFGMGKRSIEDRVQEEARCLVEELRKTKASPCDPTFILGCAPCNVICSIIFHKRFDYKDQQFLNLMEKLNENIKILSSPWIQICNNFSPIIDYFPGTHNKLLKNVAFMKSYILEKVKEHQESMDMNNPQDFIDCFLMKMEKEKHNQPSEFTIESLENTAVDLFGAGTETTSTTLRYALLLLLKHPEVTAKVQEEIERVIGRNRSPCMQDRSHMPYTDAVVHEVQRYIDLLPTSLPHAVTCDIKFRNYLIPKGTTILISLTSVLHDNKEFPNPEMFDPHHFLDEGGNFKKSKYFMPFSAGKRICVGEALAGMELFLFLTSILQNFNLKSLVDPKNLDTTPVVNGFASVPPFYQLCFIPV

[11] = Metabolic stability in rat liver microsomes assessed as parent compound remaining at 0.5 uM after 10 mins; assay type: ADME, Microsome; conditions: read-out: Stability
Cytochrome P450 2C8 [12] = biological target: T2, Cytochrome P450 2C8; assay: Time-dependant inhibition of CYP2C8 in human liver microsomes; assay type: ADME
[13] = Fraction unbound in mouse plasma; assay type: ADME, cell-free
[14] = Efflux ratio of permeability in human Caco2 cells; assay type: ADME, cell-based; conditions: Caco-2
[15] = Permeability of the compound at pH 7.4 by PAMPA; assay type: ADME; conditions: read-out: permeability
Cytochrome P450 2C19 [16] = biological target: T1, Cytochrome P450 2C19; assay: Time-dependant inhibition of CYP2C19 in human liver microsomes; assay type: ADME
Cytochrome P450 2B6 [17] = biological target: T4, Cytochrome P450 2B6; assay: Time-dependant inhibition of CYP2B6 in human liver microsomes; assay type: ADME
Cytochrome P450 2D6 [18] = biological target: T3, Cytochrome P450 2D6; assay: Time-dependant inhibition of CYP2D6 in human liver microsomes; assay type: ADME
Cytochrome P450 2C9 [19] = biological target: T5, Cytochrome P450 2C9; assay: Inhibition of CYP2C9 in human liver microsomes; assay type: ADME; conditions: human, microsomes
[20] = Metabolic stability in mouse liver microsomes assessed as parent compound remaining at 0.5 uM after 10 mins; assay type: ADME, Microsome; conditions: read-out: Stability
[21] = Metabolic stability in human liver microsomes assessed as parent compound remaining at 0.5 uM after 10 mins; assay type: ADME, Microsome; conditions: read-out: Stability
Cytochrome P450 3A4 [22] = biological target: T6, Cytochrome P450 3A4 (Homo sapiens, UniProt P08684); assay: Time-dependant inhibition of CYP3A4 in human liver microsomes; assay type: ADME
T6 sequence (P08684 whole entry): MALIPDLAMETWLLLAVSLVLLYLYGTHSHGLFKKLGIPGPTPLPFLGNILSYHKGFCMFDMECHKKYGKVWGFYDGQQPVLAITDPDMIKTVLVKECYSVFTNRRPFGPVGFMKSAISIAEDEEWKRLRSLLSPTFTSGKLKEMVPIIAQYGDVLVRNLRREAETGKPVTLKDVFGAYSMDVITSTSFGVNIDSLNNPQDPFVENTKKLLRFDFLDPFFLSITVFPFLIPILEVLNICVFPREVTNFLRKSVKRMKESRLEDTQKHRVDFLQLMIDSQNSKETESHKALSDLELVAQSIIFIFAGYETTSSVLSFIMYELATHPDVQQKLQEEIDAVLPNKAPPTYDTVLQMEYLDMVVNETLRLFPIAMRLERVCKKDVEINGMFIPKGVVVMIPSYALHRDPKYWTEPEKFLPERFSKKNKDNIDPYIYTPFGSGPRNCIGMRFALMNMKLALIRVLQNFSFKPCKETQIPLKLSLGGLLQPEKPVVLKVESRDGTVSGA

Cytochrome P450 3A4 [23] = biological target: T6, Cytochrome P450 3A4; assay: Inhibition of CYP3A4 in human liver microsomes; assay type: ADME; conditions: human, microsomes
[24] = Toxicity in CD1 mouse model of formalin-induced nociception assessed as hypothermia at 30 mg/kg, po; assay type: organism-based; conditions: in vivo
[25] = biological target: T7, Sodium channel protein type 9 subunit alpha (Mus musculus, UniProt Q62205); assay: Inhibition of Nav1.7 in mouse DRG neurons at -70 mV holding potential by patch clamp electrophysiology method
[26] = Unbound plasma concentration in CD1 mouse model of formalin-induced nociception at 30 mg/kg, po; assay type: ADME, organism-based; conditions: in vivo
[27] = Toxicity in CD1 mouse model of formalin-induced nociception assessed as prostration or sedation at 30 mg/kg, po; assay type: organism-based; conditions: in vivo
Mus musculus [28] = assay: Analgesic activity in CD1 mouse model of formalin-induced nociception assessed as reduction in formalin-evoked paw flinching/licking response during first phase at 30 mg/kg, po pretreated for 30 mins followed by formalin treatment and measured during first 5 mins post formalin injection; assay type: functional, organism-based
Mus musculus [29] = assay: Analgesic activity in CD1 mouse model of formalin-induced nociception assessed as reduction in formalin-evoked paw flinching/licking response during second phase at 30 mg/kg, po pretreated for 30 mins followed by formalin treatment and measured during 15 to 45 mins post formalin injection; assay type: functional, organism-based
[30] = biological target: T7, Sodium channel protein type 9 subunit alpha; assay: Inhibition of recombinant mouse Nav1.7 expressed in HEK293 cells at -70 mV holding potential by patch clamp electrophysiology method; assay type: cell-based
[31] = Plasma concentration in CD1 mouse model of formalin-induced nociception at 30 mg/kg, po; assay type: ADME, organism-based; conditions: read-out: Cp, in vivo

SMILES | Papp [1] [×10⁻⁶ cm/s] | inhibition (INH) (Cytochrome P450 2C19 [2]) | IC50 [3] [nM] | Papp B→A [4] [×10⁻⁶ cm/s] | fraction unbound [5] | inhibition (INH) (Cytochrome P450 2C8 [6]) | inhibition (INH) (Cytochrome P450 2D6 [7]) | inhibition (INH) (Cytochrome P450 2B6 [8]) | Papp A→B [9] [×10⁻⁶ cm/s] | TDI (Cytochrome P450 2C9 [10]) | remaining at 10 min, 0.5 µM [11] [%] | TDI (Cytochrome P450 2C8 [12]) | fraction unbound [13] | efflux ratio [14] | Papp [15] [×10⁻⁶ cm/s] | TDI (Cytochrome P450 2C19 [16]) | TDI (Cytochrome P450 2B6 [17]) | TDI (Cytochrome P450 2D6 [18]) | inhibition (INH) (Cytochrome P450 2C9 [19]) | remaining at 10 min, 0.5 µM [21] [%] | further results
Cn1cc(-c2ccc(C(F)(F)F)cc2)c2cc(F)c(C(=O)NS(C)(=O)=O)cc21 | 71.2 | Not Active | 13 | 12.5 | 0.002 | Not Active | Not Active | Not Active | 2 | Not Active | 99 | Not Active | 0.005 | 6.1 | 14 | Not Active | Not Active | Not Active | Not Active | 97 | remaining at 10 min, 0.5 µM [20]: 95%; TDI (Cytochrome P450 3A4 [22]): Not Active; inhibition (INH) (Cytochrome P450 3A4 [23]): Not Active
CC(C)COc1ncc(-c2cn(C)c3cc(C(=O)NS(C)(=O)=O)c(F)cc23)cc1Cl | 49.5 | Not Active | 1.1 | 6.7 | 0.001 | Not Active | Not Active | Not Active | 2 | Not Active | 85 | Not Active | 0.002 | 3.4 | 20.5 | Not Active | Not Active | Not Active | Not Active | 100 | remaining at 10 min, 0.5 µM [20]: 100%; TDI (Cytochrome P450 3A4 [22]): Not Active; inhibition (INH) (Cytochrome P450 3A4 [23]): Not Active
Cn1cc(-c2ccc(C(F)(F)F)cc2)c2cc(F)c(C(=O)NS(=O)(=O)C3CC3)cc21 | 166 | Not Active | 5 | 8.6 | 0.0025 | Not Active | Not Active | Not Active | 4.6 | Not Active | 100 | Not Active | 0.0035 | 1.9 | 32.3 | Not Active | Not Active | Not Active | Not Active | 100 | Activity [24]: Non-Toxic; IC50 [25]: 5 nM; Cp(f) [26]: 0.49 µM; Activity [27]: Non-Toxic; Activity (Mus musculus [28]): inactive; Activity (Mus musculus [29]): inactive; IC50 [30]: 27 nM; concentration [31]: 140 µM; TDI (Cytochrome P450 3A4 [22]): Not Active; inhibition (INH) (Cytochrome P450 3A4 [23]): Not Active
